Laboratory results from ChEMBL document CHEMBL1932964, “Lead optimisation of pyrazoles as novel FPR1 antagonists” (Bioorg Med Chem Lett, 2012).
≈ marks a conversion by molar mass, not a printed value. Each block holds one molecule with its values, some of them ahead of it.

How the values were obtained:
[1] = Intrinsic clearance in Sprague-Dawley rat hepatocytes assessed per 10^6 cells measured after 90 mins
[2] = biological target: T1, fMet-Leu-Phe receptor (Homo sapiens, UniProt P21462); test: Antagonist activity at human recombinant FPR1 in expressed in HEK293 cells assessed as inhibition of FMLP-stimulated intracellular calcium mobilisation after 1 hr by FLIPR assay; type: functional, cell-based
T1 sequence (P21462 whole entry): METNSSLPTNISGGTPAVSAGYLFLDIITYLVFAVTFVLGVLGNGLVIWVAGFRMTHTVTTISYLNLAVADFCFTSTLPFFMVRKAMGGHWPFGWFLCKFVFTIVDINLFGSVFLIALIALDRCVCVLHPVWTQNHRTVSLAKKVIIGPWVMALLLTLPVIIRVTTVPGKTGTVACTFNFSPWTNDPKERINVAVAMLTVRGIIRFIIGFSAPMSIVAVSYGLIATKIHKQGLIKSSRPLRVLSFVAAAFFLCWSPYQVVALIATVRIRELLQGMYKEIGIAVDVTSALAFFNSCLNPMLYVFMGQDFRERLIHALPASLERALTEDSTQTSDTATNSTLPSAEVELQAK

[3] = biological target: T2, fMet-Leu-Phe receptor (Homo sapiens) (UniProt P21462); test: Antagonist activity at human recombinant FPR1 in expressed in HEK293 cells assessed as inhibition of FMLP-stimulated intracellular calcium mobilisation at 30 uM after 1 hr by FLIPR assay; type: functional, cell-based
T2 sequence (whole entry): T1 sequence (P21462 whole entry)

[4] = Clearance in Sprague-Dawley rat at 2 mg/kg, iv; conditions: in vivo
[5] = Volume of distribution at steady state in Sprague-Dawley rat at 2 mg/kg, iv; type: ADME, organism-based; set-up: dose 2 mg/kg, route intravenous; conditions: in vivo, read-out: Vdss
[6] = Oral bioavailability in Sprague-Dawley rat at 2 mg/kg; type: ADME, organism-based; conditions: in vivo
[7] = Intrinsic clearance in human hepatocytes assessed per 10^6 cells measured after 90 mins
[8] = Ratio of drug level in blood to plasma in Sprague-Dawley rat; type: ADME
[9] = system: Plasma; test: (§1) Fraction unbound in Sprague-Dawley rat plasma; type: ADME, cell-free
[10] = system: Liver; test: Intrinsic clearance in rat liver microsomes assessed as media loss of parent compound per million cells
[11] = Half life in Sprague-Dawley rat at 2 mg/kg, iv; conditions: in vivo
[12] = […] pKa of the compound; type: physicochemical
[13] = biological target: T3, Solute carrier organic anion transporter family member 1B1 (Homo sapiens, UniProt Q9Y6L6); test: Inhibition of OATP1B1 transporter
T3 sequence (Q9Y6L6 whole entry): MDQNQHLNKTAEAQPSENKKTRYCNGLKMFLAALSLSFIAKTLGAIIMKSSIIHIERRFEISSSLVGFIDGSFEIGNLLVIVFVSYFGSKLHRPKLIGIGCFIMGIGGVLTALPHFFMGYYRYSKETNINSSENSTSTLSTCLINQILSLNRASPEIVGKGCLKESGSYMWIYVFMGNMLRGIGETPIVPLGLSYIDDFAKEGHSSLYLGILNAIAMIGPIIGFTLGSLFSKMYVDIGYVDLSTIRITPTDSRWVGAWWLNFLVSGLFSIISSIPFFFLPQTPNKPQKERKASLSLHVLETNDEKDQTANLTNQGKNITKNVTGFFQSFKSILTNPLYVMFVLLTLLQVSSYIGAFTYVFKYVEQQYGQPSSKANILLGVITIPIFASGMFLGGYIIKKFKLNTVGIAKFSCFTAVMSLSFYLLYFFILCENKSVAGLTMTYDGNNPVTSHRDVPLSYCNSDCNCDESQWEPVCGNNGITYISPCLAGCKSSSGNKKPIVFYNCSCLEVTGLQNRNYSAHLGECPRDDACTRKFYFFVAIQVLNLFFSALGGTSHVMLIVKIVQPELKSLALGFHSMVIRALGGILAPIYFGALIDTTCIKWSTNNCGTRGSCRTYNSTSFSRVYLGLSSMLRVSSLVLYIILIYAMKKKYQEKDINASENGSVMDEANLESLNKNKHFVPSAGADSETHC

[14] = system: Plasma; test: (§2) Fraction unbound in human plasma; type: ADME, cell-free
[15] = Thermodynamic solubility of compound by shake-flask technique; type: physicochemical; conditions: read-out: Therm_solubility
[16] = Intrinsic clearance in human liver microsomes measured after 45 mins post NADPH addition
[17] = as §1; type: ADME, cell-free; conditions: Sprague-Dawley
[18] = Plasma clearance in bile duct cannulated Sprague-Dawley rat; type: ADME, organism-based
[19] = as §2; type: ADME, cell-free

SMILES: Cc1ccc(S(=O)(=O)Nc2c(C(=O)N[C@@H](C)C(C)(C)C)c(C)nn2-c2ccccc2)cc1
clearance [4]: 42 mL/min/kg
Vd [5]: 0.45 L/kg
bioavailability [6]: 19%
hepatocyte CLint at […] [7]: 7 µL/min/1e6 cells
blood plasma ratio [8]: 0.7
Fu [9]: 1.1%
CLH [10]: 412 µL/min
half-life [11]: 15 min
pKa [12]: 3.9
IC50 [13]: 7.94 µM
Fu [14]: 4.2%
solubility thermodynamic [15]: 1030 µM (≈ 468 µg/mL)
microsomal CLint at 0.75 h [16]: 40 µL/min/mg

SMILES: Cc1ccc(S(=O)(=O)Nc2c(C(=O)N[C@@H](C)C(C)(C)C)c(C)nn2C2CCCCC2)cc1
CLH [10]: 23 µL/min
hepatocyte CLint at […] [1]: 8 µL/min/1e6 cells
IC50 [2]: 0.0316 µM

SMILES: CCC(CC)NC(=O)c1c(C)nn(C(C)C)c1NS(=O)(=O)c1ccc(C)cc1
IC50 [2]: 25.1 µM

SMILES: Cc1ccc(S(=O)(=O)Nc2c(C(=O)N[C@@H](C)C(C)(C)C)c(C)nn2C2CCN(CC(F)(F)F)CC2)cc1
IC50 [2]: 3.16 µM

Now from value to molecule:

hepatocyte CLint at […] [1]: < 3 µL/min/1e6 cells
IC50 [2]: 2.51 µM
SMILES: COCC(C)n1nc(C)c(C(=O)N[C@@H](C)C(C)(C)C)c1NS(=O)(=O)c1ccc(C)cc1 (some centres undefined)

inhibition [3]: < 30%
SMILES: Cc1ccc(S(=O)(=O)Nc2c(C(=O)N[C@@H](C)C(C)(C)C)c(C)nn2C2CCN(C)CC2)cc1

hepatocyte CLint at […] [1]: 10 µL/min/1e6 cells
IC50 [2]: 0.316 µM
SMILES: COCCC(C)n1nc(C)c(C(=O)N[C@@H](C)C(C)(C)C)c1NS(=O)(=O)c1ccc(C)cc1 (some centres undefined)

IC50 [2]: 0.0398 µM
SMILES: Cc1ccc(S(=O)(=O)Nc2c(C(=O)N[C@@H](C)C(C)(C)C)c(C)nn2C2CCSCC2)cc1

clearance [4]: 42 mL/min/kg
Vd [5]: 0.23 L/kg
bioavailability [6]: 5%
hepatocyte CLint at […] [7]: < 3 µL/min/1e6 cells
blood plasma ratio [8]: 0.7
fraction unbound [17]: 0.043
CLH [10]: 33 µL/min
half-life [11]: 36 min
pKa [12]: 3
hepatocyte CLint at […] [1]: < 4 µL/min/1e6 cells
clearance [18]: 21 mL/min/kg
fraction unbound [19]: 0.08
solubility thermodynamic [15]: > 2010 µM
microsomal CLint at 0.75 h [16]: 5 µL/min/mg
SMILES: Cc1nn(-c2ccc(F)cc2)c(NS(=O)(=O)c2ccc(C#N)cc2)c1C(=O)N[C@@H](C)C(C)(C)C

IC50 [2]: 0.316 µM
SMILES: Cc1ccc(S(=O)(=O)Nc2c(C(=O)N[C@@H](C)C(C)(C)C)c(C)nn2C2CCOCC2)cc1
